Measurements as given in publication PMC11530593, “Structural mechanism of human HCN1 hyperpolarization-activated channel inhibition by ivabradine” (The Journal of Biological Chemistry, 2024).
Substitutions are numbered along the chain they refer to.

Columns and labels:
WT hHCN1 = target: T1, WT hHCN1 (Homo sapiens, UniProt O60741); assay: Whole-cell patch-clamp, Ih inhibition in transfected HeLa cells; format: cell-based
T1 construct: Full-length WT or mutant human HCN1 were cloned into the pcDNA3.1 vector; expressed in transfected cells; host or cells: HeLa cells, pcDNA3.1 vector, transient lipofection
T1 sequence (O60741 1-890): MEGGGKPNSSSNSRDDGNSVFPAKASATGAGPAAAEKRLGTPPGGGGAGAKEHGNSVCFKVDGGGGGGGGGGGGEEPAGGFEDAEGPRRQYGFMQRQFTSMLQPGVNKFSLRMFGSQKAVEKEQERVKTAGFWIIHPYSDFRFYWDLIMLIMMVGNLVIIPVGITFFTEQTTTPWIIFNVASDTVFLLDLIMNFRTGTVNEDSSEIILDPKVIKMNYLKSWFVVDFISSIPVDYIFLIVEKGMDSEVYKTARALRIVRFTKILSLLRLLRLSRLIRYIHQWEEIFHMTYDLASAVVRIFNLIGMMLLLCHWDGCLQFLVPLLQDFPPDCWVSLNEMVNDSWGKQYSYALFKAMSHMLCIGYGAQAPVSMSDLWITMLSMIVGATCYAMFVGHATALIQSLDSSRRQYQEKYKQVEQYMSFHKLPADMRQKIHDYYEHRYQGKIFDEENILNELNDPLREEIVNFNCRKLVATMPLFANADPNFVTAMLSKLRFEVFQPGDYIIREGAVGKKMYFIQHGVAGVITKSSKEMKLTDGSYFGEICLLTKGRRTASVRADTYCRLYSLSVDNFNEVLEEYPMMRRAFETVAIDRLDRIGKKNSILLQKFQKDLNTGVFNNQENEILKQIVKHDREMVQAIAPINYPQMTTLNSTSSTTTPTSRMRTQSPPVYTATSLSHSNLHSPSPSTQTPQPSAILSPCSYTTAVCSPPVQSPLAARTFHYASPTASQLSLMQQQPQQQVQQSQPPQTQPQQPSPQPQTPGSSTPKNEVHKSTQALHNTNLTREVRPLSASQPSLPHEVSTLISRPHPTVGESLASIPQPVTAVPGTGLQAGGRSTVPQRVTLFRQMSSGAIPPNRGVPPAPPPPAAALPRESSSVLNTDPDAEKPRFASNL
Experimental: The electrophysiological characteristics of WT hHCN1 were recorded using whole-cell patch-clamp. […] Activation of the HCN1 channel occurred in response to membrane hyperpolarization.
(§1) Full-length WT or mutant human HCN1 were cloned into the pcDNA3.1 vector for electrophysiological experiments. HeLa cells (from Thermo Fisher Scientific) cultured in Dulbecco's modified Eagle's medium (from Solarbio Life Science) + 10% fetal bovine serum (from ExCell Bio) at 37 °C were transiently transfected using lipofection, and whole-cell patch-clamp recordings were obtained using the Axon 200B amplifier (Molecular Devices) and clampex software (https://www.moleculardevices.com/products/axon-patch-clamp-system/acquisition-and-analysis-software/pclamp-software-suite), 36 to 48 h posttransfection. The extracellular solution contained 110 mM NaCl, 0.5 mM MgCl2, 1.8 mM CaCl2, 5 mM Hepes, 30 mM KCl, and pH was adjusted to 7.4 with NaOH, while the pipette solution contained 130 mM KCl, 10 mM NaCl, 0.5 mM MgCl2, 1 mM EGTA, 5 mM Hepes, and pH was adjusted to 7.4 with KOH. The recordings were performed at room temperature, voltage-clamp mode, and filtered at 1 kHz. The sampling frequency was 10 kHz, and the series resistance was limited to 5 MΩ. To elicit channel currents, step pulses of 3 s duration ranging from −180 mV to −30 mV were applied, followed by a step to −180 mV lasting 1.25 s. The tail currents evoked by the second step were used to determine the voltage-dependent activation curves and calculate the midpoint of activation potential (V1/2). The half maximal inhibitory concentration (IC50) of drugs was determined by recording currents at a pulse of −140 mV and analyzing current amplitudes at varying drug concentrations. The IC50 value was calculated using the Hill equation.

HCN1 mutant F285A = target: T2, HCN1 mutant F285A (Homo sapiens, UniProt O60741, F285A); assay: Whole-cell patch-clamp, Ih inhibition, HCN1 mutant; format: cell-based; details: electrophysiological recordings, read-out: IC50 (Fig. 2F)
T2 construct: Full-length WT or mutant human HCN1 were cloned into the pcDNA3.1 vector; expressed in transfected cells; host or cells: HeLa cells, pcDNA3.1 vector, transient lipofection
T2 sequence (O60741 1-890 F285A): T1 sequence (O60741 1-890) with F285A
Experimental: To elucidate the contribution of these residues to the inhibitory effect of ivabradine, we introduced mutations in ivabradine-interacting residues, converting them into alanines (Fig. 2F).
as §1

[1] = design: method as in PMID 16936474; details: cited from earlier work
absence seizures = tested on: absence seizures; design: method as in PMID 34018186; details: coadministration with P-glycoprotein inhibitor elacridar; cited from earlier work

COc1cc2c(cc1OC)CC(=O)N(CCCN(C)C[C@H]1Cc3cc(OC)c(OC)cc31)CC2 [ivabradine]
effect on Ih current (WT hHCN1; 20 μM): significantly reduced | IC50 (WT hHCN1; membrane potential -140 mV, read-out: half-maximal inhibitory concentration (IC50) of Ih inhibition): 2.94 ± 0.61 µM | IC50 (HCN1 mutant F285A): 13.4 µM | ability to penetrate the blood-brain barrier [1]: poor | effect on absence seizures (absence seizures): significantly and persistently reducing absence seizures
